Reference: patent US8815935B2, “Inhibitors of protein prenyltransferases” (The Regents of the University of California, priority 2008, dated 2014)
Values joined by “and” are separate entries in the source; they are usually repeats but may differ in a detail not shown here. Identical values can stand only once.

Key:
[1] = tested on: geranylgeranylated Rheb (Rheb-CSVL) in HEK 293 cells; experiment: Rheb-CSVL mobility shift in HEK 293 cells; type: cell-based, human; settings: 48 hours
Description: Finally, we investigated in vivo effects of compounds 22 (also known as UC-22) and 23 (also known as UC-23). Human embryonic kidney (HEK) 293 cells were transfected with the Rheb-CSVL construct that expresses the geranylgeranylated form of the Rheb protein. Inhibition of the geranylgeranylation of this protein can be detected from a shift in its mobility on SDS polyacrylamide gel; the unprocessed form appears as a slowly migrating band.
Human embryonic kidney (HEK) 293 cells expressing Myc-HA tagged-Rheb-CVSL (upper) or Myc-HA tagged-Rheb-WT (lower) were treated with P3-E5 for 48 hours and then lysed. The cell lysates were run on a SDS polyacrylamide gel and immunoblotted using anti-Myc or anti-Actin antibody. The descriptors P and U indicate processed and unprocessed Rheb, respectively.
Human embryonic kidney (HEK) 293 cells expressing Myc-HA tagged-Rheb-CVSL (upper) or Myc-HA tagged-Rheb-WT (lower) were treated with mP5-H6a (also referred to as mP5-H6), or GGTI-298 for 48 hours and then lysed. Lysates were run on a SDS polyacrylamide gel and immunoblotted with anti-Myc or anti-Actin antibody.

K562 cells = experiment: Cell cycle profile by flow cytometry, K562; type: cell-based, human; settings: 48 hours, FIG. 24A
Experimental: K562 cells were treated with indicated concentrations (mM) of P3-E5 (ranging from […]) or GGTI-298 (ranging from […]) for 48 hours. Cell cycle profiles were monitored by flow cytometry. Percentages of cells in each phase of the cell cycle are indicated by different colors. Red: G0/G1 phase. Black: S phase. Gray: G2/M phase.

Jurkat = experiment: Cell cycle distribution by flow cytometry, Jurkat; type: cell-based, human; settings: 10 μM, 48 hours
Experimental: (§1) Cell viability was determined by Cell Counting Kit-8 (CCK-8, Dojindo, Kumamoto, Japan) as described previously (31). Cell viability was calculated relative to the DMSO control. Cell cycle profile was analyzed by flow cytometry as described previously (32).

[2] = Pharmacokinetics (serum levels) after IP dosing; type: in vivo, mice; settings: 1.16 mg/kg
Description: This may be due to slow metabolism of the compound. […] Thus, in some embodiments, the compositions of the invention can be administered is a dosage regimen that is highly convenient, e.g., once weekly instead of daily. The compositions of the present invention can be administered every 1, 2, 3, 4, 5, 6, or 7 days, or may be administered otherwise.

MiaPaCa2 = MiaPaCa2 cell growth inhibition; type: cell-based, human; settings: Homo sapiens, MIA PaCa-2, 72 h; 3 days, CCK-8, vs DMSO; read-out: IC50, MiaPaCa2 (Pancreas)
Experimental: (§2) In FIG. 9-24 in vitro IC50 values for the GGTase I activity are reported. In Tables 7-15 in cell GI50 values for the growth inhibition of a variety of cancer cell lines (e.g., Jurkat, K562, MDA-MB-231, BT474, MCF7, MiaPaCa2, Aspc-1, Panc-1, Capan-2, CFpac-1, and MCF10a) are reported.
as §1

HPAC = HPAC cell growth inhibition; type: cell-based; settings: Homo sapiens, 72 h, 3 days, CCK-8, vs DMSO, read-out: IC50, HPAC (Pancreas)
Experimental: as §1

Jurkat cells = experiment: Jurkat cell growth inhibition; type: cell-based, human; settings: Homo sapiens, Jurkat, 72 h; 3 days, CCK-8, vs DMSO; read-out: IC50, Jurkat (Blood)
Procedure, shortened: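 Jurkat T-cell leukemia cells were exposed to compound for 72 h, with cell number counted and viability read by CCK-8 relative to the DMSO control. GI50 is the compound concentration giving 50% growth inhibition.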

Capan-2 = Capan-2 cell growth inhibition; type: cell-based, human; settings: Homo sapiens, Capan-2, 72 h; 3 days, CCK-8, vs DMSO; read-out: IC50, Capan-2 (Pancreas)
Experimental: as §2, §1

MCF7 = MCF7 cell growth inhibition; type: cell-based, human
Experimental: as §2, §1

Panc-1 = Panc-1 cell growth inhibition; type: cell-based, human; settings: Homo sapiens, PANC-1, 72 h; 3 days, CCK-8, vs DMSO; read-out: IC50, PANC-1 (Pancreas)
Experimental: as §2
Panc-1 cells (Pancreatic cancer cell line) and Jurkat cells (T-cell leukemia) were treated with 12.5 μM of P5-H6 or 12.5 μM of mP5-H6a for 72 hours. The cell number was counted as described in Example 5.
as §1

BT474 = BT474 cell growth inhibition; type: cell-based, human; settings: Homo sapiens, BT-474, 72 h; 3 days, CCK-8, vs DMSO; read-out: IC50, BT474 (Breast)
Experimental: as §2, §1

p21CIP1/WAF1 promoter = experiment: p21 promoter luciferase reporter assay in NIH3T3 cells; type: cell-based; settings: NIH3T3, 48 hours, dose dependent
Experimental: For the p21^WAF1/CIP1 promoter luciferase assay, NIH3T3 cells were transfected with p21^WAF1/CIP1 promoter-Luc or vector plasmids (33) (both plasmids are provided by Dr. Genhong Cheng). Cells were treated with GGTI compounds. Promega luciferase assay kit was used according to the manufacturer's protocol.
Another mechanism through which GGTI can effect cell cycle progression is to inhibit RhoA which negatively regulates expression of a Cdk inhibitor p21^CIP1/WAF1. To investigate whether the GGTI compounds described herein can induce p21^CIP1/WAF1 expression, luciferase transcriptional activation from the p21^CIP1/WAF1 promoter (33) was measured. Transient expression systems with NIH3T3 cells were used to examine the ability of P61-A6 to induce p21^CIP1/WAF1-luciferase expression. P61-A6 induced significant (4-fold) inductions of luciferase activity versus DMSO in a dose dependence manner (FIG. 37C).

Clearance ([2]; IP)	Cmax ([2]; mouse, serum, ip)	half-life ([2]; mouse, serum, ip)	AUC(0-t) ([2]; mouse, serum, ip, read-out: AUC0-4 h)	IC50 (MiaPaCa2)	IC50 (Jurkat cells)	IC50 (MCF7; Homo sapiens, MCF7, 144 h, 6 days, CCK-8, vs DMSO, read-out: IC50, MCF-7 (Breast))	IC50 (Panc-1)	IC50 (BT474)	SMILES	inhibition of geranylgeranylation of Rheb-CSVL (slowly migrating unprocessed band) [1]	cell cycle effect in K562 cells (K562 cells)	Percent G2/M, Jurkat (Jurkat; DMSO 11.80)	Percent G0/G1, Jurkat (Jurkat; DMSO 46.92)	IC50 (HPAC)	IC50 (Capan-2)	inhibition of proliferation of MCF-7 (MCF7; 72 hours, FIG. 37A)	induction of p21CIP1/WAF1-luciferase activity versus DMSO (p21CIP1/WAF1 promoter)
–	–	–	–	–	–	–	–	–	Cc1ccccc1S(=O)(=O)N1[C@@H](c2cccc(Cl)c2)C(C(=O)O)=CC[C@H]1c1ccc(Cl)cc1 [P3-E5]	inhibits geranylgeranylation in cells	induces G1 arrest	–	–	–	–	–	–
1.04 mL/h	13000 ng/mL and 22.4 µM	16.9 h	22200 ng·h/mL	4.7 µM	2.9 µM	4.5 µM	5.2 µM	8.5 µM	Cc1ccccc1S(=O)(=O)N1C(c2ccc(Cl)cc2)C(C(=O)NC(Cc2ccccc2)C(N)=O)=CC1C(C)(C)C (centres unmarked) [P61-A6]	–	–	11.60%	57.87%	3.9 µM	11.5 µM	dose-dependent inhibition of proliferation	4 fold
